The target of assay [1] is T1, AlaRS^R329H (Homo sapiens, UniProt P49588, R329H).
T1 construct: made in house; host or cells: E. coli BL21 (DE3), pET-21a
T1 sequence (P49588 1-968 R329H): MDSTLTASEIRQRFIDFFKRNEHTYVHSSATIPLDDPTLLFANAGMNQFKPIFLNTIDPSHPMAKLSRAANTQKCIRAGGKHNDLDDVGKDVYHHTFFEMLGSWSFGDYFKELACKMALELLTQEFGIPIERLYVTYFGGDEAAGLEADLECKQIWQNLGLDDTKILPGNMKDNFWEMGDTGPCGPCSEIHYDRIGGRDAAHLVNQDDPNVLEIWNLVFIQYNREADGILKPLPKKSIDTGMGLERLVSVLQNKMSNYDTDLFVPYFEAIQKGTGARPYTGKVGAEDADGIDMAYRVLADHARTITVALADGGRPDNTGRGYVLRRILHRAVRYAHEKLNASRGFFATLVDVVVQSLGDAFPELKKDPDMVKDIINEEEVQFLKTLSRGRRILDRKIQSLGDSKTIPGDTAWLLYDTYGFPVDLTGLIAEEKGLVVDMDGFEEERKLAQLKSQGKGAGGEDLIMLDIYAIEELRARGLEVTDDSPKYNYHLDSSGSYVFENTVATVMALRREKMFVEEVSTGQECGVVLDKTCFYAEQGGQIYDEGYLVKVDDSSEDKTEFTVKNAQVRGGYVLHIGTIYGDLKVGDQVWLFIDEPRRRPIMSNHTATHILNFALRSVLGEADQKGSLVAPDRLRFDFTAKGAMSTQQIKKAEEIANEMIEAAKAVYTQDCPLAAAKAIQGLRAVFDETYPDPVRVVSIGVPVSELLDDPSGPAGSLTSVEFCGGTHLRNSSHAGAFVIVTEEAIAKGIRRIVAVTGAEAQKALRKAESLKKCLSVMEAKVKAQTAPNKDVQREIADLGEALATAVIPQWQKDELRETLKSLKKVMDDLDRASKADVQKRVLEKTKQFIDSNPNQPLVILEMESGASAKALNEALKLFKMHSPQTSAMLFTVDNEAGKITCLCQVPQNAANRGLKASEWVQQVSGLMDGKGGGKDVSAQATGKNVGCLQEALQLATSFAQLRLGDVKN
Put plainly: Thermal shift assay (TSA). It is filed as binding. The conditions noted are these: positive hit = shift of more than 2.5 °C. The source says:
In this assay, with increasing temperatures, the protein undergoes thermal unfolding, exposing its hydrophobic core. Subsequently, a fluorescent dye binds to these hydrophobic regions, becoming unquenched. Fluorescence is closely monitored, and the midpoint of the protein unfolding transition is designated as the Tm. Ligand binding frequently influences protein thermal stability during denaturation. Thus, the ligand binding affinity of any potential inhibitor can be gauged by evaluating the shift in the Tm. In this experiment, we screened a library of 2000 small molecules (Table S1) and classified as positive hits those that caused a shift in the Tm of the mutant protein of more than 2.5 °C. From the TSA, we identified four small molecules that met this criterion (Figure 2A, Table 1). Specifically, Atazanavir sulfate caused a shift of 4.0 °C, Tanshinone I a shift of 3.1 °C, Hederacolchiside A1 a shift of 4.3 °C, and Hexylresorcinol a shift of 5.5 °C (Figure 2B). To assess the impact of small molecules on the thermal stability of mutant proteins, thermal shift assays were performed using a […] (Applied Biosystems, Waltham, MA, USA) with the Protein Thermal Shift™ Kit dye (Thermo Fisher Scientific, Waltham, MA, USA). Each well of a 96-well Optical Reaction Plate (Applied Biosystems) contained 14 μL of thermal shift buffer, 2 μL of diluted thermal shift dye (8×), 2 μL of a 1 mM small molecule solution, and 2 μL of 1 mg/mL protein. Plates were incubated at 4 °C for 1 h before being heated from 25 °C to 95 °C at 1 °C/min. The fluorescence signal of SYPRO orange (excitation/emission: 490/530 nm) was recorded at 30 s intervals to monitor protein denaturation. The melting temperature (Tm), defined as the midpoint of the unfolding transition, was determined from the fluorescence–temperature curve. ΔTm was calculated as the difference in Tm between AlaRS^R329H treated with compounds and the control. Experiments were conducted in triplicate for accuracy. The experiment was repeated three times.

Assay [2] deals with T1, AlaRS^R329H. Put plainly: Biolayer interferometry (BLI). Format: binding. The conditions noted are these: immobilized AlaRS^R329H, 40, 20, 10, 5, 2.5 μM, mean ± SD, triplicate. From the text:
To quantitatively analyze the binding affinity between the small molecules and the CMT mutant proteins, we performed BLI analysis on the selected candidates. BLI offers direct measurements of drug–protein binding kinetics, including key parameters such as the equilibrium dissociation constant (KD), association rate (Kon), and dissociation rate (Koff). This analysis provided key insights into the binding affinities of the four small molecules with the mutant protein AlaRS^R329H. […] To further quantify the binding of small molecules to mutant proteins, binding experiments with AlaRS^R329H proteins and small molecules were conducted using an Octet R8 system (ForteBio, Fremont, CA, USA). Purified His-tagged AlaRS^R329H proteins (500 μg/mL) were captured on Ni-NTA biosensors (ForteBio, Fremont, CA, USA), achieving a saturation response of 4–5 nm after 300 s. The biosensors were then transferred to Octet buffer (PBS with 0.01% Tween 20) for 180 s to remove loosely bound, nonspecific proteins and to establish a stable baseline. Following this, the sensors were immersed in diluted Tanshinone I (2.5–100 μM in assay buffer) for 120 s to record the association signal, and then transferred back into Octet buffer to monitor the dissociation signal for 120 s. Reference wells containing buffer instead of Tanshinone I were included to correct for baseline shifts. Additionally, a parallel set of Ni-NTA sensors in buffer served as negative reference controls to account for nonspecific binding of the compounds to the biosensor surface. The data were processed using a double reference subtraction protocol to eliminate nonspecific signals, background noise, and signal drifts caused by biosensor variability. All assays were performed in 96-well black plates with a total volume of 200 μL per well at 30 °C. Data analysis, including correction and curve fitting, was carried out using Octet® Analysis Studio 12.2.2.26. The experiment was repeated three times.
On the technique in general: BLI is a label-free optical method that tracks binding on a fibre tip over time.

Assay [3] concerns the target T1, AlaRS^R329H. Put plainly: ATP consumption assay (enzyme inhibition). It is filed as biochemical. To be noted: 1 μM AlaRS^R329H at 20 μM compounds; vs DMSO control. The protocol: We further investigated the effects of the four small molecules on the enzymatic activity of the AlaRS^R329H protein using an ATP consumption assay. All four compounds affected enzymatic activity to varying degrees. […] The ATP consumption assay was used to evaluate the enzymatic inhibitory activity of the compounds. A 30 μL reaction mixture, containing 1 μM AlaRS mutants, 25 μM ATP, 50 μM L-alanine, 30 mM HEPES (pH 7.5), 150 mM NaCl, 30 mM KCl, 40 mM MgCl2, 0.1% BSA, and varying concentrations of Tanshinone I, was incubated at room temperature for 15 min. After incubation, 10 μL of the mixture was transferred to a 384-well microplate, and AlaRS mutant activity was measured by adding 10 μL of the ATP Assay Kit (#S0026, Beyotime, Shanghai, China). Luminescence was recorded using a Synergy HTX multimode microplate reader (BioTek Inc., Winooski, VT, USA). The inhibitory rate was calculated from three independent assays to ensure the accurate assessment of Tanshinone I’s inhibitory activity. The experiment was repeated three times.

Assay [4] addresses T1, AlaRS^R329H. Put plainly: Proteolytic digestion assay (trypsin, SDS-PAGE). The conditions noted are these: 3 h. The protocol:
To delve deeper into the impact of selected small molecules on the structural conformation of AlaRS^R329H proteins, a series of proteolysis experiments were conducted. The small molecules were incubated with AlaRS^R329H proteins at room temperature for three hours, followed by SDS-PAGE analysis to evaluate their effects on the distribution of the digestion fragments. […] The AlaRS^R329H proteins (in the presence and absence of Atazanavir sulfate, Tanshinone I, Hederacolchiside A1, and Hexylresorcinol) were incubated with trypsin at different concentrations for 3 h before the reactions were quenched, and the products were separated by SDS-PAGE.

We go through 3 molecules from publication PMC11509018, “Evaluation of the Role of Tanshinone I in an In Vitro System of Charcot-Marie-Tooth Disease Type 2N” (International Journal of Molecular Sciences, 2024).

In general, Kd refers to the equilibrium constant for the complex coming apart.

Where a name gives a salt, the structure may show the parent alone.

On to `COC(=O)N[C@H](C(=O)N[C@@H](Cc1ccccc1)[C@@H](O)CN(Cc1ccc(-c2ccccn2)cc1)NC(=O)[C@@H](NC(=O)OC)C(C)(C)C)C(C)(C)C` [Atazanavir sulfate, reference compound], for which, at AlaRS^R329H [1], the “ΔTm (shift between the Tm values of AlaRS^R329H with and without compounds)” value is 4.0 °C. Moreover, at AlaRS^R329H [2], the equilibrium dissociation constant (Kd) came to 28.6 ± 9.9 µM. Besides, the “Relative Activity (relative enzyme activity of the first step)” value (“Relative Activity” below) on AlaRS^R329H [3] came out at 96.8%. In addition, the “Effect on distribution of digestion fragments / conformation” value on AlaRS^R329H [4] is reported as “minimal effects on the distribution of digestion fragments”.
Consider `C[C@@H]1O[C@@H](O[C@H]2[C@H](O[C@H]3CC[C@]4(C)[C@H]5CC=C6[C@@H]7CC(C)(C)CC[C@]7(C(=O)O)CC[C@@]6(C)[C@]5(C)CC[C@H]4C3(C)C)OC[C@H](O[C@@H]3O[C@H](CO)[C@@H](O)[C@H](O)[C@H]3O)[C@@H]2O)[C@H](O)[C@H](O)[C@H]1O` [Hederacolchiside A1], for which, on AlaRS^R329H [1], the “ΔTm (shift between the Tm values of AlaRS^R329H with and without compounds)” value was determined as 4.3 °C. On AlaRS^R329H [2], this molecule registered a dissociation constant (Kd) of 10.1 ± 0.5 µM. The “Relative Activity” value at AlaRS^R329H [3] was 69.6%. In addition, the “Effect on distribution of digestion fragments / conformation” value on AlaRS^R329H [4] is reported as “slight conformational change”.
For `CCCCCCc1ccc(O)cc1O` [Hexylresorcinol, reference compound], the Kd on AlaRS^R329H [2] came to 26.3 ± 9.9 µM. Further, the “Relative Activity” value on AlaRS^R329H [3] came to 79.8%. Also, the “Effect on distribution of digestion fragments / conformation” value on AlaRS^R329H [4] was “minimal effects on the distribution of digestion fragments”.
